Data set [1] concerns HepG2 (human liver cancer). Description: SRB cytotoxicity assay, HepG2. It counts as cell-based. Conditions: 72 h.
The test system of data set [2] is PC-3 (human prostate cancer). Description: SRB cytotoxicity assay, PC-3. It counts as cell-based. Particulars: 72 h.
The test system of data set [3] is CHO (Chinese hamster ovary). Nature of the data set: SRB cytotoxicity assay, CHO normal cells. It counts as cell-based. Particulars: Cricetulus griseus, 72 h, normal cell line. The text has this:
(§1) All the synthesized derivatives of 1 and 2 were screened for their anticancer activities against four human cancer cell lines (HeLa, PC-3, HEp-2 and HepG2) and two normal cell lines (CHO and HUVEC) using the sulforhodamine B (SRB) assay.
(§2) PC-3 (human prostate cancer), HepG2 (human liver cancer) and CHO (Chinese hamster ovary) cell lines were obtained from Shanghai Institute of Biochemistry and Cell Biology, Chinese Academy of Sciences. HeLa (human cervix cancer), HUVEC (human umbilical vein endothelial cells) and HEp-2 (human laryngeal cancer) cell lines were granted by Prof. Lei of college of life sciences, Northwest A&F University. The six cell lines were grown in RPMI-1640 (Gibco) containing 10% (v/v) thermally inactivated fetal bovine serum (FBS), penicillin (100 KU/L) and streptomycin (100 KU/L) at 37 °C in a 5% CO2 humidified incubator.
(§3) In vitro cytotoxicity was assessed by using the SRB colorimetric assay refer to previous methods[19],[42].

Data set [4] has as its system HeLa (human cervix cancer). Description: SRB cytotoxicity assay, HeLa. It counts as cell-based. Conditions: 72 h, mean ± SD.
Data set [5] has as its system HEp-2 (human larynx epidermal cancer). Nature of the data set: SRB cytotoxicity assay, HEp-2. Particulars: 72 h, mean ± SD. It is filed as cell-based.
Description: as §1, §2, §3

Data set [6] concerns HUVEC (human umbilical vein endothelial cell). Nature of the data set: SRB cytotoxicity assay, HUVEC normal cells. It is filed as cell-based. Particulars: Homo sapiens, HUVEC; 72 h, SRB, normal cell line.
The test system of data set [7] is HeLa, PC-3, HEp-2 and HepG2 cells. Description: SRB cytotoxicity, summary over the cancer cell lines. It counts as cell-based, human.
For data set [8], the system named is HEp-2 (human larynx epidermal cancer). Particulars: footnote b; ref Xiang et al.[22]; cited from earlier work.
For data set [9], the system named is PC-3 cells. Nature of the data set: Cell cycle analysis (PI staining, flow cytometry). Conditions: PC-3, 48 h. It is filed as cell-based, human.
Description: The cultured cells were treated with these compounds at the indicated concentrations for 48 h, then harvested, and analyzed by flow cytometry. […] Each experiment was performed in triplicate.
The cell cycle arrest on PC-3 and HepG2 cells was detected with PI staining assay (Sigma) as described previously[19]. After treatment with samples at the set concentrations for 48 h, cells were centrifuged and fixed in 70% ethanol at 4 °C refrigerator 12 h and then resuspended in PBS (100 μL RNase A and 400 μL PI). Cellular DNA content was measured using a FACSCalibur flow cytometer with Modfit LT 3.0 software. Twenty thousand cells were collected per sample. Mean values are presented from three independent experiments.
Data set [10] concerns CHO (Chinese hamster ovary). Particulars: footnote b; ref Xiang et al.[22]; cited from earlier work.
Setting [11] is: mean ± SD, read-out: IC50 HepG2.
Setting [12] is: read-out: IC50 HepG2 (Table 3, C13-methylene modified derivatives).
[13] abbreviates: read-out: IC50 PC-3 (Table 3, C13-methylene modified derivatives).

Each structure is given as a SMILES string. Like-named read-outs stand apart in the source and are kept apart here. Where only a bound is given, the exact number is not on record here.

Take `C=C1C(=O)OC2CC3(C)C(=CC12)C(C)CCC3OC(C)=O` (stereo not drawn) [1a, 1β-ethanoyl alantolactone]: the IC50 was 6.3 ± 1.3 µM in data set [1] (setting [11]); 8.1 ± 0.3 µM in data set [2] (mean ± SD, read-out: IC50 PC-3); 10.3 ± 1.8 µM in data set [3]; 8.2 ± 1 µM in data set [4]; 10.3 ± 1.8 µM in [5]; 12.3 ± 1.6 µM in [6].

As to `C=C1C(=O)O[C@@H]2C[C@]3(C)C(=C[C@H]12)[C@@H](C)CC[C@H]3OC(=O)c1ccccc1` [1b, 1β-benzoyl alantolactone], the IC50 in [1] (setting [11]) is above 40 µM; in data set [2] (mean ± SD, read-out: IC50 PC-3), above 40 µM; in data set [4], 25.5 ± 3.2 µM; in data set [5] it was above 40 µM.

In the case of `C=C1C(=O)O[C@@H]2C[C@]3(C)C(=C[C@H]12)[C@@H](C)CC[C@H]3OC(=O)c1ccc(F)cc1` [1c, 1β-(4-fluorobenzoyl) alantolactone], the IC50 in data set [1] (setting [11]) was above 40 µM; in [2] (mean ± SD, read-out: IC50 PC-3) it was above 40 µM; in data set [4], above 40 µM; in [5] it was above 40 µM.

`C=C1C(=O)O[C@@H]2C[C@]3(C)C(=C[C@H]12)[C@@H](C)CC[C@H]3OC(=O)c1ccc([N+](=O)[O-])cc1` [1d]: the IC50 in [1] (setting [11]) was 23.5 ± 3.6 µM; in data set [2] (mean ± SD, read-out: IC50 PC-3), above 40 µM; in data set [4], above 40 µM; in data set [5], above 40 µM.

As to `C=C1C(=O)O[C@@H]2C[C@]3(C)C(=C[C@H]12)[C@@H](C)CC[C@H]3OC(=O)c1ccc(OC)cc1` [1e], the IC50 is 34.1 ± 4.8 µM in [1] (setting [11]); above 40 µM in [2] (mean ± SD, read-out: IC50 PC-3); above 40 µM in data set [4]; above 40 µM in [5].

Take `C=C1C(=O)O[C@@H]2C[C@]3(C)C(=C[C@H]12)[C@@H](C)CC[C@H]3OC(=O)/C=C/c1ccc(Br)cc1` [1f, 1β-(4-bromocinnamoyl) alantolactone]: the IC50 is 12.5 ± 2.2 µM in data set [1] (setting [11]); 18.7 ± 5.2 µM in [2] (mean ± SD, read-out: IC50 PC-3); above 40 µM in data set [4]; above 40 µM in data set [5].

On to `C=C1C(=O)O[C@@H]2C[C@]3(C)C(=C[C@H]12)[C@@H](C)CC[C@H]3OC(=O)/C=C/c1ccc(C(F)(F)F)cc1` [1g, 1β-(4-trifluoromethyl) alantolactone], for which the IC50 is 15.2 ± 3.8 µM in data set [1] (setting [11]); 11.8 ± 2.8 µM in data set [2] (mean ± SD, read-out: IC50 PC-3); 10 ± 2.1 µM in [4]; above 40 µM in [5].

In the case of `C=C1C(=O)O[C@@H]2C[C@]3(C)C(=C[C@H]12)[C@@H](C)CC[C@H]3OC(=O)CCC(=O)O` [1h, 1β-carboxypropionyl alantolactone], the IC50 is above 40 µM in [1] (setting [11]); above 40 µM in data set [2] (mean ± SD, read-out: IC50 PC-3); above 40 µM in data set [4]; above 40 µM in [5]; 39.5 ± 2.5 µM in [6].

In the case of `CC1CCC(OC(=O)c2ccccc2)C2(C)CC3OC(=O)C4(CCC(=O)O4)C3C=C12` (stereo not drawn) [1j, 1β-benzoyl alanto-spirobislactone], the half-maximal inhibitory concentration (IC50) in data set [1] (setting [12]) and in [2] (setting [13]) was above 40 µM throughout.

For `Cc1ccc(C2=NO[C@]3(C2)C(=O)O[C@@H]2C[C@@]4(C)C(=O)CC[C@H](C)C4=C[C@@H]23)cc1` [1k, (11 S)-16-(p-methylphenyl)-spiroisoxazoline-1-carbonyl-alantolactone], the IC50 in data set [1] (setting [12]) and in [2] (setting [13]) was above 40 µM each time.

For `C[C@H]1CCC(=O)[C@]2(C)C[C@H]3OC(=O)[C@]4(CC(c5ccc([N+](=O)[O-])cc5)=NO4)[C@H]3C=C12` [1l, (11 S)-16-(p-nitrophenyl)-spiroisoxazoline-1-carbonyl-alantolactone], the IC50 in data set [1] (setting [12]) and in data set [2] (setting [13]) was above 40 µM in each case.

In the case of `C[C@H]1CCC(=O)[C@]2(C)C[C@H]3OC(=O)[C@]4(CC(c5ccccc5[N+](=O)[O-])=NO4)[C@H]3C=C12` [1m, (11 S)-16-(o-nitrophenyl)-spiroisoxazoline-1-carbonyl-alantolactone], the IC50 in data set [1] (setting [12]) and in data set [2] (setting [13]) was above 40 µM in each case.

In the case of `C[C@H]1CCC(=O)[C@]2(C)C[C@H]3OC(=O)[C@]4(CC(c5ccc(Cl)cc5)=NO4)[C@H]3C=C12` [1n, (11 S)-16-(p-chlorophenyl)-spiroisoxazoline-1-carbonyl-alantolactone], the IC50 in data set [1] (setting [12]) and in data set [2] (setting [13]) was above 40 µM throughout.

Turning to `COc1ccc(C2=NO[C@]3(C2)C(=O)O[C@@H]2C[C@@]4(C)C(=O)CC[C@H](C)C4=C[C@@H]23)cc1` [1o, (11 S)-16-(p-methoxyphenyl)-spiroisoxazoline-1-carbonyl-alantolactone], the IC50 in data set [1] (setting [12]) and in [2] (setting [13]) was above 40 µM each time.

For the molecule `COc1ccc(Cl)cc1C1=NO[C@]2(C1)C(=O)O[C@@H]1C[C@@]3(C)C(=O)CC[C@H](C)C3=C[C@@H]12` [1p, (11 S)-16-(5-chloro-2-methoxylphenyl)-spiroisoxazoline-1-carbonyl-alantolactone], the IC50 in [1] (setting [12]) and in data set [2] (setting [13]) was above 40 µM each time.

As for `COc1cc(C2=NO[C@]3(C2)C(=O)O[C@@H]2C[C@@]4(C)C(=O)CC[C@H](C)C4=C[C@@H]23)c(Cl)c(OC)c1OC` [1q, (11 S)-16-(2-chloro-3,4,5-trimethoxylphenyl)-spiroisoxazoline-1-carbonyl-alantolactone], the IC50 in data set [1] (setting [12]) and in [2] (setting [13]) was above 40 µM each time.

Take `CC1CCC(O)C2(C)CC3OC(=O)C(C)C3C=C12` (stereo not drawn) [1r, (11 S)-1β-hydroxy alantolactone derivative]: the IC50 in [1] (setting [12]) and in [2] (setting [13]) was above 50 µM in each case. In addition, the “cytotoxic activity in words” value in data set [7] (SAR statement on Tables 2 and 3) was “loss of cytotoxic activity”.

For `C=C1C(=O)O[C@@H]2C[C@]3(C)C(=C(C)CC[C@H]3OC(C)=O)C[C@H]12` [2a, 1β-ethanoyl ivangustin], the IC50 is above 40 µM in [1] (setting [11]); 28.9 ± 4.5 µM in data set [2] (mean ± SD, read-out: IC50 PC-3); 32.3 ± 2 µM in data set [4]; above 40 µM in data set [5].

In the case of `C=C1C(=O)O[C@@H]2C[C@]3(C)C(=C(C)CC[C@H]3OC(=O)c3ccccc3)C[C@H]12` [2b, 1β-benzoyl ivangustin], the IC50 in data set [1] (setting [11]) was above 40 µM; in [2] (mean ± SD, read-out: IC50 PC-3) it was above 40 µM; in [4], 27.9 ± 2.5 µM; in [5], above 40 µM.

For `C=C1C(=O)O[C@@H]2C[C@]3(C)C(=C(C)CC[C@H]3OC(=O)c3ccc(F)cc3)C[C@H]12` [2c, 1β-(4-fluorobenzoyl) ivangustin], the 50% inhibitory concentration (IC50) in data set [1] (setting [11]) was above 40 µM; in data set [2] (mean ± SD, read-out: IC50 PC-3), above 40 µM; in data set [4], above 40 µM; in [5], above 40 µM.

With `C=C1C(=O)O[C@@H]2C[C@@]3(C)C(=O)CCC(C)=C3C[C@H]12` [2d, 1-carbonyl-ivangustin], the 50% inhibitory concentration (IC50) in [1] (setting [11]) amounted to 7.7 ± 1.5 µM; in [2] (mean ± SD, read-out: IC50 PC-3) it was 7 ± 2.1 µM; in data set [3], 12.1 ± 5.2 µM; in [4] it was 8.6 ± 1.4 µM; in data set [5], 14.1 ± 2.9 µM; in [6] it was 10.5 ± 0.5 µM.

For `C=C1C(=O)OC2CC3(C)C(=CC12)C(C)CCC3O` (stereo not drawn) [compound 1, 1β-hydroxyalantolactone], the IC50 in data set [8] is 3.3 ± 0.2 µM; in data set [1] (setting [11]) it was 5.2 ± 0.1 µM; in data set [2] (mean ± SD, read-out: IC50 PC-3), 4.5 ± 0.7 µM; in [7] (Homo sapiens, range over four cancer cell lines, read-out: IC50 range against HeLa, PC-3, HEp-2 and HepG2 cells) it was 3.2 to 6.4 µM; in [4] it was 3.2 ± 0.8 µM; in data set [10] it was 6.4 ± 0.1 µM. In addition, in data set [6], the midpoint of inhibition, the IC50, lay at 9.2 ± 0.1 µM. For the same molecule, the “%G0/G1” value in data set [9] (1.0 μM) is on record as 51.2%; in data set [9] (2.0 μM), 49.3%; in data set [9] (4.0 μM), 45.8%. The “%G2/M” value in data set [9] (1.0 μM) was determined as 17.1%; in data set [9] (2.0 μM), 16.7%; in data set [9] (4.0 μM) it was 18.0%. Moreover, the “%S” value is 31.7% in data set [9] (1.0 μM), 34.0% in [9] (2.0 μM) and 36.2% in data set [9] (4.0 μM).

(Values after paper PMC5789092 (Scientific Reports, 2018).)
